The structures appear in SMILES notation. Residues, ends and D or L forms follow the SMILES beside them.

One compound from patent US9636299B2, “Method for treating diabetic retinopathy” (XAVIER UNIVERSITY OF LOUISIANA, priority 2012, dated 2017) can be followed below.

One test has as its system MMP9. The experiment in a line: MMP9 expression in high glucose-treated hRMECs (Western blot). The class given is cell-based, human. The conditions noted are these: 30 mM glucose 72 hours, 50 or 100 μM apoEdp. An excerpt: (§1) Cell Culture. Primary cultures of human retina microvascular endothelial cells (hRMECs) were purchased from the Applied Cell Biology Research Institute and grown on attachment factor-coated plates in cell systems complete (CSC) medium (Cell Systems, Kirkland, Wash.) supplemented with 20% fetal bovine serum, culture boost (animal derived growth factors) and bac-off (antibiotics). The primary hRMECs were used in their passages 4 to 6. The 18-a.a. apoE mimetic peptide apoEdp (SEQ ID NO:3, Ac-LRKLRKRLLLRKLRKRLL-amide), derived from the human apolipoprotein E receptor-binding region (see SED ID NO:1) between residues 141 and 149, was synthesized (Genemed, Arlington, Tex.) with a purity of greater than 95%. The apoEdp peptide was dissolved in phosphate-buffered saline (“PBS”) at a concentration appropriate for further experimental use. […]
(§2) Western Blotting. […] The total protein concentration was determined using a BCA protein assay kit (Pierce, Rockford, Ill.). […] To ensure the equal loading of protein in each lane, each membrane was stripped and re-probed with an antibody against β-actin, and the chemiluminescence was detected as described previously. After scanning the blots with a flatbed scanner, band intensities were analyzed using ImageJ (NIH) and the relative intensity values were normalized to control values. […]

The test system of a further test is occludin. Briefly: Streptozotocin-induced diabetic mice, retinal occludin protein by Western blot. The class given is in vivo, mouse. The conditions noted are these: 14 days. As for the experimental part:
Western Blotting. The hRMECs were harvested in M-PER Mammalian Protein Extraction Reagent (Thermo Fisher Scientific, Inc., Rockford, Ill.) containing protease inhibitor cocktail. The total protein concentration was determined using a BCA protein assay kit (Pierce, Rockford, Ill.). Equal amounts of protein were separated by electrophoresis on 5-20% SDS-polyacrylamide gels and transferred electrophoretically onto nitrocellulose membranes (Amersham, Little Chalfont, UK). […] To ensure the equal loading of protein in each lane, each membrane was stripped and re-probed with an antibody against β-actin, and the chemiluminescence was detected as described previously. After scanning the blots with a flatbed scanner, band intensities were analyzed using ImageJ (NIH) and the relative intensity values were normalized to control values. […]
To investigate the effects on the retinal tight junction protein occludin following topical eye drop (1% apoEdp) or systemic i/p injection (40 mg/kg) of apoEdp, retinas from enucleated mouse eyes were processed to harvest total RNA, and then one-step real-time RT-PCR was performed using mice occludin-specific mRNA expression. […] To correlate the occludin-specific mRNA data at a protein level, total proteins extracted from retinas of different experimental groups (FIG. 10) were analyzed using Western-blot to detect occludin-specific protein expression.
In general terms: Immunoblotting shows a protein as a band on a membrane.

The test system of a further test is heparanase. Briefly: Heparanase expression in high glucose-treated hRMECs (Western blot). The conditions noted are these: 30 mM glucose 72 hours, 50 or 100 μM apoEdp. In kind it is cell-based, human.
Text: as §1, §2

With `CC(=O)N[C@@H](CC(C)C)C(=O)N[C@@H](CCCNC(=N)N)C(=O)N[C@@H](CCCCN)C(=O)N[C@@H](CC(C)C)C(=O)N[C@@H](CCCNC(=N)N)C(=O)N[C@@H](CCCCN)C(=O)N[C@@H](CCCNC(=N)N)C(=O)N[C@@H](CC(C)C)C(=O)N[C@@H](CC(C)C)C(=O)N[C@@H](CC(C)C)C(=O)N[C@@H](CCCNC(=N)N)C(=O)N[C@@H](CCCCN)C(=O)N[C@@H](CC(C)C)C(=O)N[C@@H](CCCNC(=N)N)C(=O)N[C@@H](CCCCN)C(=O)N[C@@H](CCCNC(=N)N)C(=O)N[C@@H](CC(C)C)C(=O)N[C@@H](CC(C)C)C(N)=O` [apoEdp, Ac-LRKLRKRLLLRKLRKRLL-amide] (Ac-LRKLRKRLLLRKLRKRLL-NH2), in the test on MMP9, the “High glucose-induced expression of MMP9” value is “suppressed the expression”. For the same compound, the “Loss of occludin protein in retina” value in the test with occludin (1% apoEdp eye drop 4 times a day) and in the test with occludin (i/p injection 40 mg/kg daily) was “significantly attenuated the loss” in each case. For the same compound, the “High glucose-induced expression of heparanase” value in the test with heparanase is “suppressed the expression”.
